Measured values as given in article PMC6352937, “Inhibition of protein phosphatase-1 and -2A by ellagitannins: structure-inhibitory potency relationships and influences on cellular systems” (Journal of Enzyme Inhibition and Medicinal Chemistry, 2019).

Columns and labels:
SNAP-25^Thr138 = assay: Phosphorylation of SNAP-25 Thr138 in cortical synaptosomes (Western blot); assay type: cell-based, mouse; conditions: synaptosomes treated 45 min at 30 °C; ellagitannins 1-100 µM, TMC 10 µM
Description: (§1) Preparation of synaptosomes from murine brain cortex was carried out as described previously. Functional synaptosomes were kept in Krebs buffer (118 mM NaCl, 5 mM KCl, 25 mM NaHCO3, 1 mM MgCl2, 10 mM D-glucose, pH 7.4). After preparation, synaptosomes were treated with either tellimagrandin I or mahtabin A in 1, 10 or 100 µM final concentrations, or with 10 µM tautomycetin (TMC) for 45 min at 30 °C. After the treatments synaptosomes were applied for exocytosis assay or were lysed and the protein lysates were subjected to Western blot. For exocytosis assay an already established protocol[25] was used. FM 2–10 water-soluble styryl dye was incorporated first into the outer leaflet of synaptosome membrane, then into the synaptosomes. Exocytosis was induced by addition of 30 mM KCl to the synaptosomes. The fluorescent intensity of FM 2–10 styryl dye negatively correlated with the extent of synatposomal exocytosis and was measured by Fluoroskan FL (excitation: 488 nm, emission: 540 nm). Western blot of synaptosome proteins was carried out as described previously[24]^,[25].
Figure 5. […] E: Representative Western blot with anti- SNAP-25^pThr138 specific antibody. F: Relative changes in the amount of SNAP-25^pThr138 determined by densitometry of the Western blots normalised on the bands obtained for the loading controls. Data are means ± SD (n = 3). ANOVA *p < .05, **p < .01, ***p < .001, n.s.: not significant.

rPP1cα [1] = biological target: T1, rPP1cα (Homo sapiens, UniProt P62136); assay: Isothermal titration calorimetry (ITC); assay type: binding; conditions: 25 °C
T1 construct: FLAG; made in house
T1 sequence (P62136 whole entry): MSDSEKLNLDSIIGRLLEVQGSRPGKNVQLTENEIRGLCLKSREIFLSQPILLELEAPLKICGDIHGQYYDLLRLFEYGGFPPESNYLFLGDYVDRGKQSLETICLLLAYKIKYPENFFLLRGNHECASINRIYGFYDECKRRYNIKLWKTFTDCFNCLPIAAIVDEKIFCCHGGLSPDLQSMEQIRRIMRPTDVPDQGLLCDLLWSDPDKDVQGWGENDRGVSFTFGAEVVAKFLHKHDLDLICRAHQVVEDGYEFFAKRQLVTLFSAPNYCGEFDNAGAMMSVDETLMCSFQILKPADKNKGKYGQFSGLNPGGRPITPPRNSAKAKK
Description: Isothermal titration calorimetry (ITC) experiments were carried out at 25 °C by a MicroCal ITC200 instrument. The assay buffer contains 25 mM Tris/HCl (pH 8.0), 100 mM NaCl, and 1 mM DTT. rPP1cα was dialysed in the assay buffer two times for two hours freshly prior to measurements and diluted to 5–10 µM then transferred into the sample cell of the calorimeter. Tellimagrandin I was diluted to 60–100 µM in the assay buffer and measured into the syringe. 18 times 2 µL ligand was then injected into the cell at a stirring rate of 300 rpm. The reference power was 5 µcal/sec and the assay buffer was loaded in the reference cell. The titration data were analysed with MicroCal ITC-Origin software using one sets of site model to obtain binding parameters of ligand-protein interaction.
(§2) Figure 3. […] The changes in either, the intrinsic fluorescence of unlabelled rPP1cα upon binding to tellimagrandin I and PGG, or changes in fluorescent signal from rPP1cα extrinsically labelled with NT647 dye upon binding with EGCG, were determined at a range of concentration of polyphenols, and the fractions bound are presented. Data points are means ± SD (n = 3).

FLAG-MYPT1-PP1cδ complex = biological target: T2, FLAG-MYPT1-PP1cδ complex (Homo sapiens, UniProt P62140); assay: Protein phosphatase assay, myosin phosphatase holoenzyme; assay type: biochemical; conditions: holoenzyme ~9 nM
T2 construct: its associated proteins (such as PP1cδ) were isolated from cell lysates; expressed in transfected cells; host or cells: tsA201 cells
T2 sequence (P62140 2-327 limits assumed): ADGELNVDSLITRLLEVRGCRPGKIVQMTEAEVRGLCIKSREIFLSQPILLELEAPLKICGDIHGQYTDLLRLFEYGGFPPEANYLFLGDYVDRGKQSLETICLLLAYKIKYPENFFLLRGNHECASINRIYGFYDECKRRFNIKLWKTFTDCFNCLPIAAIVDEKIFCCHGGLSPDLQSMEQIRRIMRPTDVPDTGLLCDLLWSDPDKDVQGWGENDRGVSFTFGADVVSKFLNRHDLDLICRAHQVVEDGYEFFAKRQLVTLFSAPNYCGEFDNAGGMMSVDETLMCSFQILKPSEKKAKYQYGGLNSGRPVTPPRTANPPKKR
T2 sequence (O14974 whole entry partner): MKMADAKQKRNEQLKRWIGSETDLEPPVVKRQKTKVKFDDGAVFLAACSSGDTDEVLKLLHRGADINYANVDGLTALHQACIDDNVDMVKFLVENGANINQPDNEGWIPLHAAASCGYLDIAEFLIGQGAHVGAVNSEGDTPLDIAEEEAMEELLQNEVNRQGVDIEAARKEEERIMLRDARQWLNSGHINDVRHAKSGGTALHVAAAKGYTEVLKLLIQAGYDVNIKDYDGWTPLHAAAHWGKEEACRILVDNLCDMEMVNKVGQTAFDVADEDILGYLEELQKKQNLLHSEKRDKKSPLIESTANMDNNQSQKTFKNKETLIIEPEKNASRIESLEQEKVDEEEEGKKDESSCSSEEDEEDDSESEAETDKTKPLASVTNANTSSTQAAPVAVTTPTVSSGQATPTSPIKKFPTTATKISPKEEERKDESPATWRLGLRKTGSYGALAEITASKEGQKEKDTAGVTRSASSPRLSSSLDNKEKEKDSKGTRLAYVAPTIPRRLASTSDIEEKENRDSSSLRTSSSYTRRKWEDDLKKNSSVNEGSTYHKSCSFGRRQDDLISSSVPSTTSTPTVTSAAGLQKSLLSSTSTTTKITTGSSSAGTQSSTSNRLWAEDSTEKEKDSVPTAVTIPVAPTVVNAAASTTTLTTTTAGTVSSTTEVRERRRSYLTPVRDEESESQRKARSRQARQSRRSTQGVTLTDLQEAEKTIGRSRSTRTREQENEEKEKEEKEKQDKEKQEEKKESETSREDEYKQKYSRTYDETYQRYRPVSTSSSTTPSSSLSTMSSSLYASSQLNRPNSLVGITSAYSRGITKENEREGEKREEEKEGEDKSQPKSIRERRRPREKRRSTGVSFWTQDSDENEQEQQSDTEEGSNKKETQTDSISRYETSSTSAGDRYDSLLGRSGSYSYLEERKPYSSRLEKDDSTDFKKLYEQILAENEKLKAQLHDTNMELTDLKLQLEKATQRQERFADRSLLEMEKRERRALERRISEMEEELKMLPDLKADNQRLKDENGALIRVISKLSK
Description: (§3) Protein phosphatase activity of either skeletal muscle PP1c or PP2Ac (1.9–2.2 nM), or rPP1cα or rPP1cδ (2.71–3.72 nM), or FLAG-MYPT1-PP1c (∼9 nM) was assayed at 30 °C in absence or presence of polyphenol compounds (0.1–100 µM) in 20 mM Tris/HCl (pH 7.4), 0.1% 2-mercaptoethanol (30 µL). The purified phosphatase samples or HeLa lysates in 300-fold dilution (1.8–3.6 µg/ml) in the presence or absence of 2 µM I2 were preincubated with increasing concentration of the polyphenol compounds (0–100 µM) for 10 min then the reaction was started by the addition of 1 µM ^32P-MLC20 and incubated for 10 min. Polyphenol-treated HeLa cells were washed then lysed in 50 mM Tris/HCl (pH 8.0), 150 mM NaCl, 1% (V/V) Triton X-100, 0.15% (w/v) protease inhibitor cocktail. The phosphatase activity was assayed with 1 µM ^32P-MLC20 for 30 s in 3-fold final dilution (0.24–0.43 mg/ml). […] The samples were centrifuged for 3 min at 10,000 rpm and the supernatants (370 µL) were transferred into scintillation vials and the radioactivity of the released ^32Pi was determined in Tri-Carb 2800TR scintillation counter.
(§4) Figure 2. […] Ellagitannins (0.1–100 µM) were preincubated with the phosphatase samples for 10 min and the phosphatase activity was determined in triplicates with 1 µM ^32P-MLC20 substrate as described in “Materials and methods” section. […]

rPP1cα [2] = biological target: T1, rPP1cα; assay: Protein phosphatase assay, recombinant rPP1cα; assay type: biochemical; conditions: purified recombinant FLAG-tagged PP1cα
Description: as §3, §4

rPP1cα [3] = biological target: T1, rPP1cα; assay: Microscale thermophoresis (MST); assay type: binding; conditions: unlabelled rPP1cα, intrinsic fluorescence (NT.LabelFree)
Description: as §2

HeLa cells [4] = assay: Phosphatase activity of polyphenol-treated HeLa cells; assay type: cell-based, human; conditions: 1 h incubation; 0-50 µM tested
Description: (§5) Protein phosphatase activity of either skeletal muscle PP1c or PP2Ac (1.9–2.2 nM), or rPP1cα or rPP1cδ (2.71–3.72 nM), or FLAG-MYPT1-PP1c (∼9 nM) was assayed at 30 °C in absence or presence of polyphenol compounds (0.1–100 µM) in 20 mM Tris/HCl (pH 7.4), 0.1% 2-mercaptoethanol (30 µL). The purified phosphatase samples or HeLa lysates in 300-fold dilution (1.8–3.6 µg/ml) in the presence or absence of 2 µM I2 were preincubated with increasing concentration of the polyphenol compounds (0–100 µM) for 10 min then the reaction was started by the addition of 1 µM ^32P-MLC20 and incubated for 10 min. Polyphenol-treated HeLa cells were washed then lysed in 50 mM Tris/HCl (pH 8.0), 150 mM NaCl, 1% (V/V) Triton X-100, 0.15% (w/v) protease inhibitor cocktail. The phosphatase activity was assayed with 1 µM ^32P-MLC20 for 30 s in 3-fold final dilution (0.24–0.43 mg/ml). The reactions were terminated by the addition of 200 µL of 10% trichloroacetic acid and 200 µL of 6 mg/mL BSA solution. The samples were centrifuged for 3 min at 10,000 rpm and the supernatants (370 µL) were transferred into scintillation vials and the radioactivity of the released ^32Pi was determined in Tri-Carb 2800TR scintillation counter.
HeLa cells and tsa201 cells were cultured as recommended by the supplier. […] The emission of resorufin was measured by a fluorimeter at 620 nm. […]

PP1c = assay: Protein phosphatase assay with 32P-MLC20, native PP1c; assay type: biochemical; conditions: native PP1c from rabbit skeletal muscle; 1 µM 32P-MLC20; 10 min preincubation; mean ± SD
Description: as §5
(§6) The ellagitannins (Figure 1) assayed on the activity of PP1c or PP2Ac in this study are similar to PGG in composition, but they differ structurally in two important aspects: (i) all of them include hexahydroxydiphenoyl unit linked in various positions, except for pedunculagin which includes two of these linkages; (ii) tellimagrandin I, pedunculagin, and praecoxin B have free glycosidic hydroxyls, while GHG has an unmodified hydroxyl at position 3 of the glucopyranose ring. […] Inhibition of the phosphatase activity by ellagitannins in HeLa cell lysate was also assessed. First, we determined the activity of PP1 and PP2A in the lysates using I2 to inhibit PP1, and low concentration of OA (2 nM) to suppress PP2A specifically, in order to determine the contribution of PP1 and PP2A to the phosphatase activity of lysates (Figure 2(E)).
(§7) Figure 2. The effect of ellagitannins on the activity of PP1 and PP2A. Ellagitannins (0.1–100 µM) were preincubated with the phosphatase samples for 10 min and the phosphatase activity was determined in triplicates with 1 µM ^32P-MLC20 substrate as described in “Materials and methods” section. […] The effect of tellimagrandin I on the activity of rPP1cα (^) and rPP1cδ (●) (C), or FLAG-MYPT1-PP1cδ (▼) (D), or on the phosphatase activity of HeLa lysate in the presence of I2 (□) (F). The effect of I2 and OA on the phosphatase activity of HeLa lysate (E). Phosphatase activity in the absence of ellagitannins, I2 or OA was taken as 100%. Data are means ± SD (n = 3–5).

PP2Ac = assay: Protein phosphatase assay with 32P-MLC20, native PP2Ac; assay type: biochemical; conditions: native PP2Ac from rabbit skeletal muscle; 1 µM 32P-MLC20; 10 min preincubation; mean ± SD
Description: as §5, §6, §7

HeLa lysate = assay: Phosphatase activity of HeLa cell lysate (32P-MLC20); assay type: biochemical, human; conditions: HeLa lysate in 300-fold dilution; 1 µM 32P-MLC20; mean ± SD
Description: as §5, §6, §7

PP2A = assay: Phosphatase activity of HeLa lysate in the presence of I2 (activity due to PP2A); assay type: biochemical, human; conditions: PP1 suppressed by 2 µM I2; up to the highest concentration applied (100 µM)
Description: as §3, with “min.” for “min. Polyphenol-treated HeLa cells were washed then lysed in 50 mM Tris/HCl (pH 8.0), 150 mM NaCl, 1% (V/V) Triton X-100, 0.15% (w/v) protease inhibitor cocktail. The phosphatase activity was assayed with 1 µM ^32P-MLC20 for 30 s in 3-fold final dilution (0.24–0.43 mg/ml).”
as §6, with “First, we determined the activity of PP1 and PP2A in the lysates using I2 to inhibit PP1, and low concentration of OA (2 nM) to suppress PP2A specifically, in order to determine the contribution of PP1 and PP2A to the phosphatase activity of lysates (Figure 2(E)).” left out

HeLa cells [5] = assay: HeLa cell viability, Alamar-blue assay; assay type: cell-based, human; conditions: 24 h incubation, serum free; 0-50 µM tested
Description: HeLa cells and tsa201 cells were cultured as recommended by the supplier. Prior to treatments HeLa cells were serum starved in MEM medium supplemented with 2 mM L-glutamine for 17 h. For phosphatase activity assay cells were treated with increasing concentration of polyphenol compounds (1–50 µM) for 1 h. To assess cell viability by Alamar-blue assay serum starved cells were treated with ellagitannins (1–50 µM) for 24 h in serum free MEM medium. The media was exchanged for resazurin (20 µM) containing serum free media and the cells were incubated for 2 h to enhance resorufin formation by the viable cells. The emission of resorufin was measured by a fluorimeter at 620 nm.
Figure 4. Distinct influence of ellagitannins on the survival and phosphatase activity of HeLa cells. The effect of tellimagrandin I and mahtabin A was assayed on the survival (A) and the phosphatase activity (B) of HeLa cells in 0–50 µM concentration range as detailed in Materials and methods. The cell survival and the phosphatase activity in the absence of ellagitannins were taken as 100%. Data represent means ± SD (n = 3). ANOVA *p < .05, **p < .01, ***p < .001, n.s.: not significant.

rPP1cδ [6] = biological target: T3, rPP1cδ (Homo sapiens, UniProt P62140); assay: Protein phosphatase assay, recombinant rPP1cδ; assay type: biochemical; conditions: purified recombinant hexahistidine-tagged PP1cδ
T3 construct: hexahistidine; made in house
T3 sequence (P62140 whole entry): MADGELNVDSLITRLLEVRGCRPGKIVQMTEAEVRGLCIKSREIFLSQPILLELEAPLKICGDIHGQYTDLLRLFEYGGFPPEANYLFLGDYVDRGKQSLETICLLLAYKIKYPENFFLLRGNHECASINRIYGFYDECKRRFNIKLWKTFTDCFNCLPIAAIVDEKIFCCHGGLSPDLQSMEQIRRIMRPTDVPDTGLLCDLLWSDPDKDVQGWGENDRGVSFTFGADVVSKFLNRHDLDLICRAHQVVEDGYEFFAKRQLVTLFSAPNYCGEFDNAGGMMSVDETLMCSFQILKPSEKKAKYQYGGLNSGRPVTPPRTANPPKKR
Description: as §3, §4

rPP1cδ [7] = biological target: T3, rPP1cδ; assay: Surface plasmon resonance (SPR); assay type: binding; conditions: rPP1cδ immobilised on CM5 chip; 1:1 interaction model
[8] = tested on: mouse cortical synaptosomes; assay: KCl induced exocytosis of cortical synaptosomes (FM 2-10 dye); assay type: cell-based; conditions: 30 mM KCl; FM 2-10 fluorescence; 45 min treatment
Description: as §1
Figure 5. […] E: Representative Western blot with anti- SNAP-25^pThr138 specific antibody. F: Relative changes in the amount of SNAP-25^pThr138 determined by densitometry of the Western blots normalised on the bands obtained for the loading controls. Data are means ± SD (n = 3). […]

Row | Compound | Effect on phosphorylation level of SNAP-25^Thr138 (SNAP-25^Thr138) | Ka (ITC) (rPP1cα [1]) | S (ITC) (rPP1cα [1]) [kcal/mol/K] | N (ITC) (rPP1cα [1]; binding stoichiometry) | Kd (rPP1cα [1]; one sets of site model) [nM] | IC50 (FLAG-MYPT1-PP1cδ complex) [nM] | IC50 (rPP1cα [2]) [nM] | Kd (rPP1cα [3]) [nM] | Effect on phosphatase activity of HeLa cells (HeLa cells [4]) | IC50 (PP1c) [nM] | IC50 (PP2Ac) [µM] | IC50 (HeLa lysate) [µM] | Inhibition of phosphatase activity due to PP2A in HeLa lysate (PP2A) | Effect on viability (survival) of HeLa cells (HeLa cells [5]) | IC50 (rPP1cδ [6]) [nM] | Kd (rPP1cδ [7]) [nM] | Effect on KCl induced synaptosomal exocytosis [8]
1 | tautomycetin [TMC, reference compound] | increased the amount of SNAP-25^pThr138 |  |  |  |  |  |  |  |  |  |  |  |  |  |  |  | 
2 | O=C(O[C@H]1[C@@H]2OC(=O)c3cc(O)c(O)c(O)c3-c3c(cc(O)c(O)c3O)C(=O)OC[C@H]2OC(O)[C@@H]1OC(=O)c1cc(O)c(O)c(O)c1)c1cc(O)c(O)c(O)c1 (stereo partly shown) [tellimagrandin I] | had no any effect | 4.68 ± 1.02x10^6 M^−1 | 0.0036 | 1.16 ± 0.03 | 230 | 110 ± 20 | 230 ± 50 | 1780 ± 590 | partially reduced the phosphatase activity | 200 ± 20 | 19.5 ± 8.6 | 4.46 ± 0.95 | slightly | suppressed the viability of HeLa cells dramatically | 130 ± 20 | 310 | without any influence
3 | O=C(OC[C@H]1OC(O)[C@@H]2OC(=O)c3cc(O)c(O)c(O)c3-c3c(cc(O)c(O)c3O)C(=O)O[C@H]2[C@@H]1OC(=O)c1cc(O)c(O)c(O)c1)c1cc(O)c(O)c(O)c1 (stereo partly shown) [praecoxin B] |  |  |  |  |  |  |  |  |  | 790 ± 110 | 63.9 ± 5.52 | 6.97 ± 1.12 |  |  |  |  | 
4 | O=C(OC[C@H]1O[C@@H](OC(=O)c2cc(O)c(O)c(O)c2)[C@@H]2OC(=O)c3cc(O)c(O)c(O)c3-c3c(cc(O)c(O)c3O)C(=O)O[C@H]2[C@@H]1OC(=O)c1cc(O)c(O)c(O)c1)c1cc(O)c(O)c(O)c1 [mahtabin A] | increased the amount of phosphorylated SNAP-25^Thr138 |  |  |  |  |  |  |  | without effect | 410 ± 180 | 33.8 ± 8.44 | 6.19 ± 0.37 |  | without effect |  |  | suppressed exocytosis
